The text below walks through data of patent US20180066004A9, “MITOCHONDRIA-TARGETING PLATINUM(IV) PRODRUG” (priority 2014, published 2018).

For data set [1], the system named is human neuroblastoma SH-SY5Y cell line. Kind of data set: MTT cytotoxicity assay, SH-SY5Y. The data set is classed as cell-based. The note with it: free drugs 72 h, NPs media changed after 12 h plus 60 h. How it is done:
(§1) In vitro cytotoxicity of Platin-M, T-Platin-M, and NT-Platin-M was assessed by the 3-(4,5-dimethylthiazol-2-yl)-2,5-diphenyltetrazolium bromide or MTT assay on PCa PC3 cell line, human neuroblastoma SH-SY5Y cell line, and cisplatin resistant A2780/CP70 ovarian cancer cell line (Table 1). The rationale behind the use of androgen independent PC3 cell line was the inherent resistance of these cells to cisplatin therapy due to enhanced repair of Pt-nDNA adducts by the NER, poor targeting, and androgen-independent PCa with reduced normal mtDNA acquire a more progressive phenotype by inducing mutations to nDNA.
(§2) PC3 cells (2000 cells/well), A2780/CP70 cells (2000 cells/well), SHSY-5Y (2000 cells/well), and MSC (2000 cells/well) were plated on a 96 well plate and allowed to grow overnight. The media was changed and increasing concentrations of each formulation was added. […] Control values were set at 0% cytotoxicity or 100% cell viability.
(In general: Tetrazolium dyes change colour on reduction, which living cells bring about.)

The test system of data set [2] is PC3 cells. Kind of data set: XF24 MitoStress assay (OCR), PC3. The data set is classed as cell-based, human. The note with it: 10 μM with respect to Pt, 12 h. The text has this: (§3) Mitochondrial Toxicity of T-NP. […] Many TPP-based small molecules were described to disrupt ΔΨm, uncouple OXPHOS, and inhibit mitochondrial respiration. Preclinical mitochondrial toxicology tests can have high positive predictive value. We examined Empty-T-NP, Empty-nontargeted-NPs (NT-NP), and DBCO-TPP induced changes in mitochondrial respiration of prostate cancer (PCa) PC3 cells and cisplatin resistant ovarian cancer A2780/CP70 cells as a measure of mitochondrial toxicity (FIG. 3B). The oxygen consumption rate (OCR) of cells is an important indicator of normal mitochondrial functions. Thus, OCR can be used as a parameter to study TPP-induced mitochondrial toxicity.
(§4) After 12 h, OCR was measured and the effects of metabolic modulators oligomycin, carbonyl cyanide 4-(trifluoromethoxy)phenylhydrazone (FCCP), antimycin A, and rotenone allowed determination of multiple parameters of mitochondrial function (FIG. 3B). […] Several parameters linked to mitochondrial respiration; spare respiratory capacity, coupling efficiency, basal respiration, ETC accelerator response, and ATP coupler response were calculated from the OCR (pMoles/min) vs. Time (min) traces in FIG. 3B.
(§5) Mitochondrial Bioenergetics. We next investigated basal respiration, coupling efficiency, and spare respiratory capacity in response to Platin-M and its NPs using a XF24 MitoStress assay kit (FIG. 5). To determine whether accumulation of Platin-M inside the mitochondrial matrix of PC3 or A2780/CP70 cells inhibited mitochondrial respiration, we measured oxygen consumption rates (OCRs) in these cells as a way of assessing OXPHOS. […] PC3 or A2780/CP70 cells were treated with Platin-M, cisplatin, T-Platin-M-NPs, NT-Platin-M-NPs for 12 h.
(§6) Mito-stress Test Analysis: Different parameters of respiration: basal respiration, coupling efficiency, and spare respiratory capacity were investigated by using Seahorse XF-24 cell Mito Stress Test Kit. Prior to the assay, XF sensor cartridges were hydrated. To each well of an XF utility plate, 1 mL of Seahorse Bioscience calibrant was added and the XF sensor cartridges were placed on top of the utility plate, and kept at 37° C. incubator without CO2 for a minimum of 12 h. PC3, A2780-CP70, SH-SY5Y, and H9C2 (FIG. S18) cells were cultured in XF24-well cell culture microplates (Seahorse Bioscience) at a density of 2.5×10^4 cells/well (except for H9C2, cell density of this cell line: 5×10^4 cells/well) (0.32 cm2) in 200 μL growth medium and then incubated for 24 h at 37° C. in 5% CO2 atmosphere. […] After 12 h, all but 50 μL of the culture medium was removed from each well and the cells were rinsed two times with 500 μL of XF stress test glycolysis optimization medium pre-warmed to 37° C. and finally 450 μL of glucose depleted optimization medium was added to each well and the plate was placed at 37° C. without CO2 for 1 h prior to assay. Different parameters of respiration were calculated by subtracting the average respiration rates before and after the addition of the electron transport inhibitors oligomycin (1.0 μM), trifluorocarbonylcyanide phenylhydrazone or FCCP (1.0 μM), an ionophore that is a mobile ion carrier, and a mixture of antimycin-A (1.0 μM) which is a complex III inhibitor and rotenone (1.0 μM), a mitochondrial inhibitor that prevents the transfer of electrons from the Fe-S center in Complex I to ubiquinone. The parameters calculated included: basal respiration (baseline respiration minus antimycin-A post injection respiration), ATP turnover (baseline respiration minus oligomycin post injection respiration), maximal respiratory capacity (FCCP stimulated respiration minus antimycin-A post injection respiration) and reserve respiratory capacity (FCCP stimulated respiration minus baseline respiration). Test articles on each well had four replicates (data not shown).

Data set [3] deals with nDNA. Description: nDNA-Pt adduct quantification. The note with it: treated PC3 cells, 12 h. The data set is classed as cell-based, human. On the procedure: (§7) This might be due to the fact that for T-NP system, Platin-M needs to be released from the NPs prior to reduction to cisplatin and subsequent mtDNA interaction and all Platin-M might not have released from the NPs during the course of this experiment, mtDNA isolation was carried out after 12 h which corresponds to only ˜50% of Platin-M will be released from T-NPs (FIG. 4B).
(§8) mtDNA-Pt and nDNA-Pt Adduct Quantification: The mitochondria and nuclei were isolated according to protocol mentioned before. These fractions were further fractionated in order to isolate mitochondrial and genomic DNA, respectively. For mitochondrial DNA (mtDNA), the freshly isolated mitochondria were re-suspended in 35 μL of mitochondrial lysis buffer. To this, 5 μL of the enzyme mix was added. This was incubated at 50° C. in water bath until the solution turned clear (˜1 h). To this, 100 μL of absolute ethanol was added and the resulting solution was incubated for 10 min at −20° C. […] The resulting solution was quantified for the amount and purity of DNA by UV-Vis spectroscopy (260/280 nm) and the amount of Pt by ICP-MS. […] Reprecipitation with 70% ethanol in nanopure H2O was performed until the ratio of the absorbances at 260 and 280 nm was […]. […] The resulting solution was quantified for the amount of DNA by UV-Vis spectroscopy (260/280 nm) and the amount of Pt by ICP-MS.

The subject of data set [4] is human mesenchymal stem cells (hMSCs). On the procedure:
as §2

Data set [5] relates to cisplatin resistant A2780/CP70 cells. Kind of data set: XF24 MitoStress assay (OCR), A2780/CP70. Type of data set: cell-based, human. The note with it: 10 μM with respect to Pt, 12 h; for ATP-linked respiration on addition of oligomycin / basal OCR levels versus control cells / stimulation of mitochondrial respiration with FCCP after oligomycin: A2780/CP70.
Excerpt: as §3, §4, §5, §6

Data set [6] has as its system PCa PC3 cell line. Kind of data set: MTT cytotoxicity assay, PC3. Type of data set: cell-based, human. The note with it: free drugs 72 h, NPs media changed after 12 h plus 60 h. On the procedure:
as §1, §2

The nature of data set [7]: Platin-M ability to form micelles (nanoprecipitation, DLS). The note with it: DMF solution of Platin-M into water. The data set is classed as physicochemical. The text has this:
Morphology of T-Platin-M and NT-Platin-M-NPs was investigated using transmission electron microscopy (TEM) (FIG. 4A). […] Percent loading of Platin-M varied between 6 to 27% based on the percent feed with respect to polymer feed (FIG. 4A, Tables S1 and S2). Given the amphiphilic character of Platin-M with two cationic TPP head groups and lipophilic DBCO moieties, we questioned whether the high loading of Platin-M is due to formation of self-micelles.
Determination of Platin-M Ability to Form Micelles: Platin-M was dissolved in DMF to a final concentration of 1.5 mg/mL. This solution was added drop wise slowly into vigorously stirring nanopure water (10 mL) and stirred at room temperature for 3 h. This solution was then filtered and washed through Amicon filters with a MW cutoff of 100 kDa 3 times in order to ensure the removal of all residual organic solvent. Finally, the NPs were resuspended in nanopure water (1 mL) and filtered through a 0.2 μm filter. The resulting suspension was characterized by DLS.

Data set [8] concerns mtDNA. Kind of data set: mtDNA-Pt adduct quantification. The data set is classed as cell-based, human. The note with it: treated PC3 cells. How it is done:
as §7, §8

Data set [9] is described as follows: Electrochemistry of Platin-M (redox potential). Type of data set: physicochemical. The note with it: 1 mM in 20% DMF-PBS, 0.1 M KCl, 25° C. An excerpt: We recently developed a cycloaddition approach to introduce numerous functionalities on to Pt(IV) with high efficiency by keeping in mind that copper(I) based click chemistry can also cause reduction of Pt(IV). A TPP moiety was introduced on dibenzocyclooctyne (DBCO) derivative to result DBCO-TPP (FIG. 2, FIGS. S1-S4). A strain-promoted alkyne-azide cycloaddition (SPAAC) reaction between an azide-Pt(IV) precursor Platin-Az (Pathak, R. K., et al. Chem Eur J DOI: 10.1002/chem.201402573) recently developed by us and DBCO-TPP resulted Platin-M with high efficiency (FIG. 2). The prodrug Platin-M was characterized using microanalysis and spectroscopic techniques (FIGS. S5-S10). Feasible cellular reduction of Pt(IV) prodrug is required to release active cisplatin.
Electrochemistry of Platin-M: Electrochemical measurements were made at 25° C. on an analytical system model CHI 920c potentiostat from CH Instruments, Inc. (Austin, Tex.). A conventional three-electrode set-up comprising a glassy carbon working electrode, platinum wire auxiliary electrode, and an Ag/AgCl (3M KCl) reference electrode was used for electrochemical measurements. The electrochemical data were uncorrected for junction potentials. KCl was used as a supporting electrolyte. Platin-M (1 mM) solutions were prepared in 20% DMF-phosphate buffered saline (PBS) of pH 6.0 and 7.4 with 0.1 M KCl and voltammograms were recorded at different scan rates (data not shown).

The IC50 is the concentration that gives 50% inhibition.

As for `N.N.[Cl][Pt][Cl]` [Cisplatin, Cisdiamminedichloridoplatinum(II), reference compound], the IC50 in [1] came to 19 µM; in data set [4] (hMSC, MTT, free drugs 72 h, NPs media changed after 12 h plus 60 h), 16.4 ± 0.5 µM; in [6], 13.1 ± 0.1 µM. Also, the “ATP-linked respiration on addition of oligomycin” value (from here on “ATP-linked respiration”) in [2] and in data set [5] was “attenuated” each time. Also, the “basal OCR levels versus control cells” value in data set [2] and in [5] was “did not show any changes” in each case. Further, the “stimulation of mitochondrial respiration with FCCP after oligomycin” value (shortened to “stimulation of mitochondrial respiration”) in [2] and in data set [5] was “comparable” throughout. Moreover, in data set [3], the Pt-nDNA adduct formation entry is listed as “much higher than the level of cisplatin adducts in mtDNA”.

For the compound `[NH2][Pt]([NH2])([Cl])([Cl])([O]C(=O)CCCCCn1nnc2c1-c1ccccc1CN(C(=O)CCNC(=O)CCCCC[P+](c1ccccc1)(c1ccccc1)c1ccccc1)c1ccccc1-2)[O]C(=O)CCCCC[n+]1n[nH]c2c1-c1ccccc1CN(C(=O)CCNC(=O)CCCCC[P+](c1ccccc1)(c1ccccc1)c1ccccc1)c1ccccc1-2` [Platin-M], in data set [2], the “ATP-linked respiration” value was “less reduction”, the “basal OCR levels versus control cells” value was “less than control cells” and the “stimulation of mitochondrial respiration” value is “no enhancement in OCR levels”. Besides, in data set [7], the “PDI of particles from nanoprecipitation without polymer” value is 0.799, the “Size of particles from nanoprecipitation without polymer” value amounted to 941.6±589.5 nm and the “Zeta Potential of particles from nanoprecipitation without polymer” value is reported as −5.38±1.66 mV. Further, in data set [4] (human, 72 h), the “toxicity in hMSCs less than in the resistant cells” value is approximately 3 times. Moreover, in data set [5], the “inhibition of mitochondrial respiration in A2780/CP70 cells compared to PC3 cells” value is listed as “to a greater extent”, the “ATP-linked respiration” value is recorded as “less reduction”, the “basal OCR levels versus control cells” value is “less than control cells” and the “stimulation of mitochondrial respiration” value is “no enhancement in OCR levels”. Further, in data set [8] (12 h), the “mtDNA adduct compared to T-Platin-M-NP system” value is given as “marginally higher”. Further, in [8] (mtDNA isolated after 12 h), the Pt-mtDNA adduct formation result is “exhibited binding with mtDNA”. Moreover, in data set [9] (pH 6.0), the “Redox potential vs. Ag/AgCl” value is −0.369 V and the “Redox potential vs. NHE” value is listed as −0.269. Besides, in [9] (pH 7.4), the “Redox potential vs. Ag/AgCl” value is −0.376 V and the “Redox potential vs. NHE” value was −0.275.
